Measured values taken from ChEMBL document CHEMBL4418495, “Entpd5 inhibitors” (2012).
Active and inactive are the calls of the source. No rule for the calls is given here.

Key:
[1] = target: T1, Uridylate kinase (Escherichia coli (strain K12)) (UniProt P0A7E9); test: Inhibition of recombinant Escherichia coli UMP kinase pyrH catalyzed UMP phosphorylation in presence of GTP and ATP incubated for 1 hr by luminescence based assay
T1 sequence (whole entry): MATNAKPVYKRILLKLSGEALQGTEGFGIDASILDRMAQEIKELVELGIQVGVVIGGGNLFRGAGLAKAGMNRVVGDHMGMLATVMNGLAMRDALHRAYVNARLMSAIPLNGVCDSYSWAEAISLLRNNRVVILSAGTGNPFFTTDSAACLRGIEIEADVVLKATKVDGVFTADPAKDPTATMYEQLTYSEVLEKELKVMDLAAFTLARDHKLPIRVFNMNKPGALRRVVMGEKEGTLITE

[2] = target: T2, Nucleoside diphosphate phosphatase ENTPD5 (Homo sapiens) (UniProt O75356); test: Inhibition of human recombinant ENTPD5 expressed in insect cells assessed as reduction in UDP hydrolysis at 1 uM incubated for 1 hr in presence of UMP, GTP and ATP by Escherichia coli UMP kinase pyrH catalyzed UMP phosphorylation coupled luciferase assay
T2 sequence (whole entry): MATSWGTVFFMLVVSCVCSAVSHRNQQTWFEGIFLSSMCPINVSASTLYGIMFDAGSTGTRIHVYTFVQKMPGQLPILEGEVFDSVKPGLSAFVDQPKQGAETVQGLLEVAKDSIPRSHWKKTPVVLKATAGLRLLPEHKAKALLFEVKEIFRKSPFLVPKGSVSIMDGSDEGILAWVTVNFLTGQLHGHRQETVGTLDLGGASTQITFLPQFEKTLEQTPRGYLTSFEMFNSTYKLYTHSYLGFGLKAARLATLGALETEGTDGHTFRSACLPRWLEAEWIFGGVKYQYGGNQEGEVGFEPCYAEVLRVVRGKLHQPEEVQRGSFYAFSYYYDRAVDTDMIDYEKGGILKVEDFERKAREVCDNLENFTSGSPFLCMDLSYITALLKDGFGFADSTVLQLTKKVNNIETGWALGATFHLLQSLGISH

[3] = target: T2, Nucleoside diphosphate phosphatase ENTPD5 (Homo sapiens); test: Inhibition of human recombinant ENTPD5 expressed in insect cells assessed as reduction in reduction in UDP hydrolysis by measuring inorganic phosphate release incubated for 1 hr by malachite green based assay
[4] = target: T2, Nucleoside diphosphate phosphatase ENTPD5 (Homo sapiens); test: Inhibition of human recombinant ENTPD5 expressed in insect cells assessed as reduction in UDP hydrolysis up to 10 uM incubated for 1 hr in presence of UMP, GTP and ATP by Escherichia coli UMP kinase pyrH catalyzed UMP phosphorylation coupled luciferase assay

SMILES	inhibition [1]	inhibition [2]	inhibition [3]	inhibition [4]
N#Cc1ccccc1COc1ccc(/C=C2/SC(=S)NC2=O)cc1Br	inactive	Active	Active	Dose-dependent effect
COc1ccc(-n2cccc2/C=C2\C(=O)NC(=S)N(c3ccc(Br)cc3)C2=O)cc1	inactive	Active	Active	Dose-dependent effect
COc1ccc2c(c1)C1C=CCC1C(c1ccc([N+](=O)[O-])cc1)N2 (stereo unspecified)	inactive	Active	Active	Dose-dependent effect
O=[N+]([O-])c1ccc(NCc2ccco2)c2nonc12	inactive	Active	Active	Dose-dependent effect
Cc1ccc(C2=C/C(=C/c3ccc(C)c([N+](=O)[O-])c3)C(=O)O2)c(C)c1	inactive	Active	Active	Dose-dependent effect
O=C1N=C(Nc2cccc(Cl)c2Cl)S/C1=C/c1ccc(OCc2ccc(C(=O)O)cc2)c(Br)c1	inactive	Active	Active	Dose-dependent effect
COc1ccc(-n2cccc2/C=C2\C(=O)NC(=S)N(c3ccc(C)c(C)c3)C2=O)cc1	inactive	Active	Active	Dose-dependent effect
CCN1C(=O)/C(=C/c2cccn2C)C(=O)NC1=S	inactive	Active	Active	Dose-dependent effect
O=C(/C=C/c1ccco1)/C=C/c1ccc(-c2ccc(Br)cc2)o1	inactive	Active	Active	Dose-dependent effect
Cc1ccc(NC2=NC(=O)/C(=C/c3ccc(-c4ccc(C(=O)O)cc4)o3)S2)cc1Cl	inactive	Active	Active	Dose-dependent effect
O=C1S/C(=C/c2ccco2)C(=O)N1c1ccc(Cl)cc1	inactive	Active	Active	Dose-dependent effect
COC(=O)Cn1cc(/C=C2\C(=O)NC(=S)N(c3ccc(Cl)cc3)C2=O)c2ccccc21	inactive	Active	Active	Dose-dependent effect
C=CCN1C(=O)/C(=C\c2cccn2C)C(=O)NC1=S	inactive	Active	Active	Dose-dependent effect
O=C1NC(=S)N(c2ccc(Cl)cc2)C(=O)/C1=C/c1ccc(I)o1	inactive	Active	Active	Dose-dependent effect
N#CC1=C(N)C(C#N)(C#N)C(c2ccc(OCc3ccc(Cl)cc3)c([N+](=O)[O-])c2)C2CCCC=C12 (stereo unspecified)	inactive	Active	Active	Dose-dependent effect
COc1cc(-c2ccc(/C=C/c3[nH]c(=O)[nH]c(=O)c3[N+](=O)[O-])o2)c(OC)cc1Cl	inactive	Active	Active	Dose-dependent effect
O=C1c2c(O)cccc2Cc2cccc(O)c21	inactive	Active	Active	Dose-dependent effect
S=C(Nc1ccccc1)Nc1ccc2nc(-c3ccco3)c(-c3ccco3)nc2c1	inactive	Active	Active	Dose-dependent effect
Cn1cc(C(c2ccc(O)c(O)c2O)c2cn(C)c3ccccc23)c2ccccc21	inactive	Active	Active	Dose-dependent effect
Cc1ccc(CNC(=O)c2cc(-c3ccc(Br)s3)nc3ccccc23)o1	inactive	Active	Active	Dose-dependent effect

SMILES	inhibition [1]	inhibition [2]	inhibition [3]	inhibition [4]
COC(=O)Cn1c(/C=C2\C(=O)NC(=S)N(c3cccc(Br)c3)C2=O)cc2ccccc21	inactive	Active	Active	Dose-dependent effect
O=C1NC(=S)NC(=O)C1=Cc1cn(-c2ccccc2)nc1-c1ccccc1	inactive	Active	Active	Dose-dependent effect
N#CC(c1ccc(Cl)cc1)c1c(Cl)cc(-n2ncc(=O)[nH]c2=O)cc1Cl (stereo unspecified)	inactive	Active	Active	Dose-dependent effect
CN1C(=O)C(=Cc2ccc(Sc3ccccc3)o2)C(=O)N(C)C1=S	inactive	Active	Active	Dose-dependent effect
N#CC1=C(N)NC(SCC(=O)c2cc3ccccc3oc2=O)=C(C#N)C1=C1C=CC(=O)C=C1	inactive	Active	Active	Dose-dependent effect
O=C(Nc1nonc1NC(=O)c1sc2cc(Cl)ccc2c1Cl)c1sc2cc(Cl)ccc2c1Cl	inactive	Active	Active	Dose-dependent effect
O=C1/C(=C\C=C\c2ccco2)SC(=S)N1Cc1ccccc1	inactive	Active	Active	Dose-dependent effect
O=C(Cn1cc(/C=C2\C(=O)NC(=O)N(Cc3ccccc3)C2=O)c2ccccc21)NCc1ccccc1	inactive	Active	Active	Dose-dependent effect
O=C1NC(=O)C(=Cc2cn(-c3ccccc3)nc2-c2ccc(F)cc2)C(=O)N1	inactive	Active	Active	Dose-dependent effect
CC(=O)c1ccc(-c2ccc(C=C3C(=O)N(C)C(=S)N(C)C3=O)o2)cc1	inactive	Active	Active	Dose-dependent effect
N=C1NC(=O)/C(=C/C=C/c2ccc([N+](=O)[O-])o2)S1	inactive	Active	Active	Dose-dependent effect
O=C(C(c1ccccc1)c1ccccc1)N(CCc1csc2nc(-c3ccc4ccccc4c3)cn12)Cc1ccco1	inactive	Active	Active	Dose-dependent effect
CCN1C(=O)c2ccc(-c3ccc(C=C4C(=O)NC(=S)NC4=O)o3)cc2C1=O	inactive	Active	Active	Dose-dependent effect
O=C(NC(=S)Nc1ccc(-c2nc3ncccc3o2)cc1)c1ccc(Cl)cc1Cl	inactive	Active	Active	Dose-dependent effect
Cc1ccc(-c2csc3nc(SCc4c(C)noc4C)n(-c4ccccc4)c(=O)c23)o1	inactive	Active	Active	Dose-dependent effect
O=C(CCl)N(CC(=O)N1c2ccccc2-n2cccc2C1c1ccc(Cl)cc1)C1CC1 (stereo unspecified)	inactive	Active	Active	Dose-dependent effect
C=CCN(CC(=O)Nc1cc(C)on1)C(=O)CCCC	inactive	Active	Active	Dose-dependent effect
O=C(Nc1c[nH]c(=O)[nH]c1=O)c1cccc(N2C(=O)c3ccc([N+](=O)[O-])cc3C2=O)c1	inactive	Active	Active	Dose-dependent effect
O=C1OC(c2ccccc2)OC(=O)C1=Cc1ccc(-c2cc([N+](=O)[O-])ccc2Cl)o1 (stereo unspecified)	inactive	Active	Active	Dose-dependent effect
